# Measured values taken from ChEMBL document CHEMBL5149994, “Anticancer potential of indirubins in medicinal chemistry: Biological activity, structural modification, and structure-activity relationship” (Eur J Med Chem, 2021).
# Key:
# CT26 [1] = assay: Antitumor activity against mouse CT26 cells in BALB/c mouse assessed as reduction in tumour weight at 200 mg/kg, ILES daily measured after 15 days relative to control; format: functional; design: scale not given: the % may be the effect or the level left; conditions: time 15 day
# CT26 [2] = assay: Antitumor activity against mouse CT26 cells in BALB/c mouse assessed as reduction in tumour volume at 200 mg/kg, ILES daily measured after 15 days relative to control; format: functional; design: scale not given: the % may be the effect or the level left; conditions: time 15 day
# [3] = molecular target: Proto-oncogene tyrosine-protein kinase Src (Homo sapiens, UniProt P12931); assay: Inhibition of c-SRC in human MDA-MB-468 cells in presence of [gamma-32P]ATP and ATP by immunoprecipitation method; format: cell-based
# Proto-oncogene tyrosine-protein kinase Src, sequence (P12931 2-536 limits assumed): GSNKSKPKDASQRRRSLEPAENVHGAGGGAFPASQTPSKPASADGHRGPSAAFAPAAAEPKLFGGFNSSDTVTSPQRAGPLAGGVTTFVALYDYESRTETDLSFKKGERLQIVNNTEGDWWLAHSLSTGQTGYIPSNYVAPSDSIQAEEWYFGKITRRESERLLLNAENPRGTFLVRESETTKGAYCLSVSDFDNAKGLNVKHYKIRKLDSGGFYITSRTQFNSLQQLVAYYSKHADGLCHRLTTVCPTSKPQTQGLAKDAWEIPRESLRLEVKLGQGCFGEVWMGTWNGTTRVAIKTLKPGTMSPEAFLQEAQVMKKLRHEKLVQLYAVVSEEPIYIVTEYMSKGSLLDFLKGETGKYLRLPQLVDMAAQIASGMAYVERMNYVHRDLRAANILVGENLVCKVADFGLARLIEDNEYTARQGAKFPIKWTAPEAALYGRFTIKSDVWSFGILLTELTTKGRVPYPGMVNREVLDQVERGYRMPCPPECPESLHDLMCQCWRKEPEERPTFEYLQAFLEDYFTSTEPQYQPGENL
# HCT-116 = assay: Antiproliferative activity against human HCT-116 cells assessed as cell growth inhibition; format: functional, cell-based
# [4] = molecular target: Vascular endothelial growth factor receptor 2 (Homo sapiens, UniProt P35968); assay: Inhibition of VEGFR2 (unknown origin)
# Vascular endothelial growth factor receptor 2, sequence (P35968 whole entry): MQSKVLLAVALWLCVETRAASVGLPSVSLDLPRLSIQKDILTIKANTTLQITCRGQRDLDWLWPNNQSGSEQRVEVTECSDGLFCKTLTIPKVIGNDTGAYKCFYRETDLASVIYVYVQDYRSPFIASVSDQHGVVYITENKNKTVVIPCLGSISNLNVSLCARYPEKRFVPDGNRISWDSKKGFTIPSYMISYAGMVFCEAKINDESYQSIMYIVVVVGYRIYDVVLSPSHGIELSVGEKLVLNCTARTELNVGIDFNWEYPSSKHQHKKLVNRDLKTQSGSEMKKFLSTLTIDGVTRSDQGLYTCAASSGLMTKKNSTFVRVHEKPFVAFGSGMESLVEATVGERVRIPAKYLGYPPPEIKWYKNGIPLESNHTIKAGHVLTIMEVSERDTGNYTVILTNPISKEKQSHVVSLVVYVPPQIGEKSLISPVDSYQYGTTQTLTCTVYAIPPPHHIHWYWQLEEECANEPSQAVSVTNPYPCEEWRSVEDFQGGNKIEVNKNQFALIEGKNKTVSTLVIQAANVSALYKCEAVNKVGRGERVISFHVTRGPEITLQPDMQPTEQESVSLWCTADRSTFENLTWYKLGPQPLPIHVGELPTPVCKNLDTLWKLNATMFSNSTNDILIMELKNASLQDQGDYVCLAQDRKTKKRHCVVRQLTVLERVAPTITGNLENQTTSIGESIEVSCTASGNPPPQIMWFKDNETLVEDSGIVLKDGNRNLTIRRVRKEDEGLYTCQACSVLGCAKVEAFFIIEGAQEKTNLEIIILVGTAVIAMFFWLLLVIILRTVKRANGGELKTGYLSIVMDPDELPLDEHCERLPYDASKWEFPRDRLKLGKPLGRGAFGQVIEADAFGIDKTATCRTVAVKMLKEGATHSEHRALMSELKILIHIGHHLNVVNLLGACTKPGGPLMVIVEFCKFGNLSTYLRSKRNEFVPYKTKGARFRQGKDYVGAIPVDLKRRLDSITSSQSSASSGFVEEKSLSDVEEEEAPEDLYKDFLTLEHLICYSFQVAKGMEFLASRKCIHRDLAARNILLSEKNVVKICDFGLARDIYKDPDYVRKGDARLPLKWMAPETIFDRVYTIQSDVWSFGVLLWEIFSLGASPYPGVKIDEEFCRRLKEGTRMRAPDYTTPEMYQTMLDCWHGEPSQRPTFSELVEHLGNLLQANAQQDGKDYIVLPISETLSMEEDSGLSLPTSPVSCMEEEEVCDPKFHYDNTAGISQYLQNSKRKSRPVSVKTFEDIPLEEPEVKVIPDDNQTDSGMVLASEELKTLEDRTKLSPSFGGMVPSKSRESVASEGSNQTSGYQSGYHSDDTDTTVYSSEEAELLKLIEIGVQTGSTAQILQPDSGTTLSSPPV
# LXFL 529 [5] = assay: Antiproliferative activity against human LXFL 529 cells assessed as cell growth inhibition; format: functional, cell-based
# [6] = Antitumor activity against human PDAC cells xenografted in BALB/c nu/nu mouse assessed as reduction in tumour weight at 40 mg/kg, ip treated every other day for 6 days relative to control; format: functional; design: scale not given: the % may be the effect or the level left; conditions: time 6 day
# CDK2/Cyclin A2 [7] = molecular target: T1, CDK2/Cyclin A2 (Homo sapiens, UniProt P24941); assay: Inhibition of GST-fused human CDK2/cyclin A expressed in Escherichia coli using histone H1 as substrate in presence of [33p]-gamma ATP and MgATP
# [8] = molecular target: Tyrosine-protein kinase Lck (Homo sapiens, UniProt P06239); assay: Inhibition of LCK (unknown origin) in presence of ATP
# Tyrosine-protein kinase Lck, sequence (P06239 whole entry): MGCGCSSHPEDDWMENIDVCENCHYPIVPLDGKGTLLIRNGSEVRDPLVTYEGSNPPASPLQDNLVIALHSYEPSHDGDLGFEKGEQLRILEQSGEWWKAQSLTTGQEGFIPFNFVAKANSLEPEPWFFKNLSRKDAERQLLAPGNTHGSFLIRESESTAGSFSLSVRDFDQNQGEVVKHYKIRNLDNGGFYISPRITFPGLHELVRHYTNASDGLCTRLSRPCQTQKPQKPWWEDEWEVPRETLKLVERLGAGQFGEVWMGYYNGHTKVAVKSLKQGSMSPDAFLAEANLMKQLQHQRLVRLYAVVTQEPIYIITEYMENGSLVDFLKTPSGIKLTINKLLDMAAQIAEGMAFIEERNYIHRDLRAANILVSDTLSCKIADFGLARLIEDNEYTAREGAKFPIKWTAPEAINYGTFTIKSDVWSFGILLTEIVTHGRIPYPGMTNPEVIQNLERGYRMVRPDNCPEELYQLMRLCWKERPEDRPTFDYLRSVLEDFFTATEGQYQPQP
# HuCCT-1 = assay: Antiproliferative activity against human HuCCT-1 cells assessed as cell growth inhibition measured upto 72 hrs by CCK-8 assay; format: functional, cell-based; conditions: HuCCT-1, 72 h
# MCF7 [9] = assay: Cytotoxicity against human MCF7 cells assessed as cell growth inhibition measured after 3 days by SRB assay; format: functional, cell-based; conditions: MCF7, 72 h
# [10] = Antiproliferative activity against human OZ [Human cholangiocarcinoma] cells assessed as cell growth inhibition measured upto 72 hrs by CCK-8 assay; format: functional, cell-based
# [11] = molecular target: Fibroblast growth factor receptor 1 (Homo sapiens, UniProt P11362); assay: Inhibition of FGFR1 (unknown origin)
# Fibroblast growth factor receptor 1, sequence (P11362 whole entry): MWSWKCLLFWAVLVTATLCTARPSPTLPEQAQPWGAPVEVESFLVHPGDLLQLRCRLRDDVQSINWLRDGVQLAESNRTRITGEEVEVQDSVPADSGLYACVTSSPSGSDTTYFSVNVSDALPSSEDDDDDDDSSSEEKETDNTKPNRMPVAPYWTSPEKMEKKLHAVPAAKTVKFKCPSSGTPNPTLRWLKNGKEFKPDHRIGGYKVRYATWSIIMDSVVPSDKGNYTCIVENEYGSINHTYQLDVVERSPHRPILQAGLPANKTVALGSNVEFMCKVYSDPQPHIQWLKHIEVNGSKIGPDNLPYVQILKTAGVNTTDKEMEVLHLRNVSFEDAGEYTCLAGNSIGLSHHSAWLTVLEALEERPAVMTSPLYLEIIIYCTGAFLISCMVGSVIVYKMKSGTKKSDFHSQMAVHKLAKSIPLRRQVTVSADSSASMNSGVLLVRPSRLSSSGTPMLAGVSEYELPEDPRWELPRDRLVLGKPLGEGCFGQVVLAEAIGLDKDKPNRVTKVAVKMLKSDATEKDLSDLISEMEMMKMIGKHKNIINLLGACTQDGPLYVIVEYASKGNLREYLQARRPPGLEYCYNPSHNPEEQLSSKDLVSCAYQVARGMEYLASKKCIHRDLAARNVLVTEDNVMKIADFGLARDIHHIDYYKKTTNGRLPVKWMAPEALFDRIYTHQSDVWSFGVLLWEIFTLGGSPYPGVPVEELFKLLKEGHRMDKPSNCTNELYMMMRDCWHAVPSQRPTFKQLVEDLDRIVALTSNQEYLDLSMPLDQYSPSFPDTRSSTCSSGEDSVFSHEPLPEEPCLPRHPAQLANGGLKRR
# [12] = Antiproliferative activity against human NOZ cells assessed as cell growth inhibition measured upto 72 hrs by CCK-8 assay; format: functional, cell-based
# [13] = molecular target: Serine/threonine-protein kinase Sgk1 (Homo sapiens, UniProt O00141); assay: Inhibition of SGK (unknown origin) in presence of ATP
# Serine/threonine-protein kinase Sgk1, sequence (O00141 whole entry): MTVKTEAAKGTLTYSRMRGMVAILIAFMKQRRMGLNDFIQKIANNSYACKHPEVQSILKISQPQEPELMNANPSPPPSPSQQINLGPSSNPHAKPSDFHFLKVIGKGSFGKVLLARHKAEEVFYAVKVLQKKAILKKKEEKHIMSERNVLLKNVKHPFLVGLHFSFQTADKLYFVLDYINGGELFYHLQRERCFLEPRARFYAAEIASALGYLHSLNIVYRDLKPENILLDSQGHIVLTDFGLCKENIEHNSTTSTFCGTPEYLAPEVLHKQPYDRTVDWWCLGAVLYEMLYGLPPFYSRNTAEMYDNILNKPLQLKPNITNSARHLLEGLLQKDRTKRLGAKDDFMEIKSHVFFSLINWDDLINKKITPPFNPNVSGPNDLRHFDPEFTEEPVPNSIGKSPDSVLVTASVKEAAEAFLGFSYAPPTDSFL
# A549 [14] = assay: Antitumor activity against human A549 cells xenografted in CD1 mouse assessed as reduction in tumour weight at 6 mg/kg, sc treated 3 times a week for 25 days in presence of thymoquinone relative to control; format: functional; design: scale not given: the % may be the effect or the level left; conditions: time 25 day
# A549 [15] = assay: Antitumor activity against human A549 cells xenografted in CD1 mouse assessed as reduction in tumour volume at 6 mg/kg, sc treated 3 times a week for 25 days in presence of thymoquinone relative to control; format: functional; design: scale not given: the % may be the effect or the level left; conditions: time 25 day
# HL-60 = assay: Antiproliferative activity against human HL-60 cells assessed as cell growth inhibition measured after 3 days by trypan blue staining based inverted microscope method; format: functional; conditions: HL-60, 72 h, time 3 day
# CDK2/Cyclin A2 [16] = molecular target: T1, CDK2/Cyclin A2; assay: Inhibition of CDK2/cyclin A (unknown origin); format: protein-complex assay
# LXFL 529 [17] = assay: Cytotoxicity against human LXFL 529 cells assessed as cell growth inhibition measured after 3 days by SRB assay; format: functional, cell-based; conditions: LXFL 529, 72 h
# [18] = molecular target: Cyclin-dependent kinase 4/cyclin D1 (Homo sapiens, UniProt P11802); assay: Inhibition of CDK4/cyclin D1 (unknown origin); format: protein-complex assay
# Cyclin-dependent kinase 4/cyclin D1, sequence (P11802 whole entry): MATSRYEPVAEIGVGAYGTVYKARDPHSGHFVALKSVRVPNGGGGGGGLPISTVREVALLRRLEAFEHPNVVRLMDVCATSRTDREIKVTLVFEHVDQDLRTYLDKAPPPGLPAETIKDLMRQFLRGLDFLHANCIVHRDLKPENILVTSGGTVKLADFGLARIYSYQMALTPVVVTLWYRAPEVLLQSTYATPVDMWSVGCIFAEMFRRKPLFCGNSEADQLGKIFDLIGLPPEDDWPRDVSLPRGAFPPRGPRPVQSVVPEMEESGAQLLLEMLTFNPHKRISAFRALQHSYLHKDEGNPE
# Cyclin-dependent kinase 4/cyclin D1, sequence (P24385 whole entry, further chain): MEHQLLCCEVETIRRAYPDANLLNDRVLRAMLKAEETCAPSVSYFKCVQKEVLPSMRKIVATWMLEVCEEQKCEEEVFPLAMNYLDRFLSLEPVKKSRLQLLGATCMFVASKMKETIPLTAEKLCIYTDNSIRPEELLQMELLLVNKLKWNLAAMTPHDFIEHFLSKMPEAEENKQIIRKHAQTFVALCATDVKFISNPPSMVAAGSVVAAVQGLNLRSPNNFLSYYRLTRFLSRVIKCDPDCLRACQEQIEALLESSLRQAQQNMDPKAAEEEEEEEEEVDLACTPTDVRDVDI
# Danio rerio = species: Danio rerio; assay: Antiangiogenic activity in transgenic zebrafish embryo assessed as inhibition of angiogenic vessel growth incubated for 24 hrs by FITC staining based analysis; format: functional, organism-based
# [19] = Inhibition of CDK2/cyclin E (unknown origin); design: species or system Homo sapiens
# [20] = molecular target: Receptor-type tyrosine-protein kinase FLT3 (Homo sapiens, UniProt P36888, D835Y); assay: Inhibition of recombinant FLT3 D835Y mutant (unknown origin) in presence of ATP by HTRF assay
# [21] = molecular target: T2, Receptor-type tyrosine-protein kinase FLT3 (Homo sapiens, UniProt P36888); assay: Inhibition of FLT3 (unknown origin)
# T2 sequence (P36888 whole entry): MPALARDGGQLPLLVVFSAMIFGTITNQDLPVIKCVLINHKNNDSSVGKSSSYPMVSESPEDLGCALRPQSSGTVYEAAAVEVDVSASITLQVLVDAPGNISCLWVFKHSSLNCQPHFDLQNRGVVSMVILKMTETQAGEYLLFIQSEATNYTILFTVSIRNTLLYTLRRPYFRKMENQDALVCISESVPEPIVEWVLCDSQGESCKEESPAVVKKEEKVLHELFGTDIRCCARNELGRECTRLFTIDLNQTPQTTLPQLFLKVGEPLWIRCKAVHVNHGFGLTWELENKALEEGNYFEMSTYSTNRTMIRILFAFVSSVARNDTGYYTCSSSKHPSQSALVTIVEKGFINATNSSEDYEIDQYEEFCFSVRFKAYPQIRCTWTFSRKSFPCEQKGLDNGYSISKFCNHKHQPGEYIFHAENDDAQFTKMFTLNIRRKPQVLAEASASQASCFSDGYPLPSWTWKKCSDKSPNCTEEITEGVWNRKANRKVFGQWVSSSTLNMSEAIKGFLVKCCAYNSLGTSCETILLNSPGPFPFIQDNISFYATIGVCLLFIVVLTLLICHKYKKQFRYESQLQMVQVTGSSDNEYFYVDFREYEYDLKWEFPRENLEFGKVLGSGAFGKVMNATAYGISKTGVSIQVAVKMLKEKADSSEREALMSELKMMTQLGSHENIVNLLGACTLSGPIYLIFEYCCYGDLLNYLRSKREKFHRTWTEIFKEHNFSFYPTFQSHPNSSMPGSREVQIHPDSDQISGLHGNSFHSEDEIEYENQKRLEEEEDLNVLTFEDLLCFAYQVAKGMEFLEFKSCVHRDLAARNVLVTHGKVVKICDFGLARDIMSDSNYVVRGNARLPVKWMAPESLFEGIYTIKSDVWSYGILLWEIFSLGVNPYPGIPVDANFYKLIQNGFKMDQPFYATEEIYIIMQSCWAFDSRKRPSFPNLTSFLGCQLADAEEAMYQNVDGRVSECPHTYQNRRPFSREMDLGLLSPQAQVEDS
# [22] = molecular target: T2, Receptor-type tyrosine-protein kinase FLT3; assay: Inhibition of recombinant FLT3 (unknown origin) in presence of ATP by HTRF assay
# HUVEC = assay: Antiproliferative activity against HUVEC cells assessed as cell growth inhibition measured after 3 days by [3H]-thymidine incorporation assay; format: functional, cell-based; conditions: Homo sapiens
# MV4-11 [23] = assay: Antiproliferative activity against human MV4-11 cells assessed as cell growth inhibition measured after 72 hrs by tetrazolium staining based WST-8 assay; format: functional; conditions: MV4-11, 72 h
# [24] = Inhibition of VEGFR (unknown origin); design: species or system Homo sapiens
# MeWo = assay: Antitumor activity against human MeWo cells xenografted in mouse assessed as reduction in tumour volume at 50 mg/kg per day, po administered via oral gavage measured after 14 days relative to control; format: functional; design: scale not given: the % may be the effect or the level left; conditions: time 14 day
# K-562R = assay: Antiproliferative activity against imatinib-resistant human K-562R cells assessed as cell growth inhibition measured after 72 hrs by MTT assay; format: functional, cell-based
# K562 = assay: Antitumor activity against human K562 cells xenografted in BALB/c mouse assessed as reduction in tumour volume at 6 mg/kg, ip treated every other day for 2 weeks relative to control; format: functional; design: scale not given: the % may be the effect or the level left
# [25] = Antitumor activity against human TT cells xenografted in BALB/c nu/nu mouse assessed as reduction in tumour weight at 40 mg/kg per day, po administered via oral gavage daily measured after 21 days relative to control; format: functional; design: scale not given: the % may be the effect or the level left; conditions: time 21 day
# [26] = Antiproliferative activity against human TT cells assessed as cell growth inhibition measured after 72 hrs by EZ-CyTox reagent based analysis; format: functional
# SNU-638 = assay: Antiproliferative activity against human SNU-638 cells assessed as cell growth inhibition; format: functional
# MV4-11 [27] = assay: Antitumor activity against human MV4-11 cells xenografted in mouse assessed as reduction in tumour volume at 10 mg/kg per day, iv measured after 21 days relative to control; format: functional; design: scale not given: the % may be the effect or the level left; conditions: time 21 day
# PC-3 = assay: Antiproliferative activity against human PC-3 cells assessed as cell growth inhibition; format: functional
# MV4-11 [28] = assay: Antiproliferative activity against human MV4-11 cells assessed as cell growth inhibition; format: functional
# [29] = Antitumor activity against mouse 4T1-Luc cells xenografted in BALB/c mouse assessed as decrease in lung metastasis at 1 mg/kg, iv measured after 8 days […]; format: functional; design: scale not given: the % may be the effect or the level left; conditions: time 8 day
# MCF7 [30] = assay: Antiproliferative activity against human MCF7 cells assessed as cell growth inhibition at 10 uM by crystal violet staining based assay relative to control; format: functional; design: scale not given: the % may be the effect or the level left
# A2058 = assay: Antitumor activity against human A2058 cells xenografted in BALB/c mouse assessed as reduction in tumour volume at 50 mg/kg per day, po administered via oral gavage treated every other day for 14 days relative to control; format: functional; design: scale not given: the % may be the effect or the level left; conditions: time 14 day
smiles,measurement,setting,value
O=C1Nc2ccccc2/C1=C1/Nc2ccccc2/C1=N\OCC(O)CO (stereo unspecified),Activity,CT26 [1],46.8%
same,Activity,CT26 [2],49.3%
same,IC50,[3],950 nM
same,IC50,HCT-116,< 100 nM
same,IC50,[4],950 nM
same,IC50,LXFL 529 [5],900 nM
COc1ccc2c(c1)/C(=C1/Nc3ccccc3/C1=N\O)C(=O)N2,Activity,[6],60%
O=C1Nc2ccccc2/C1=C1/Nc2ccccc2/C1=N\O,IC50,CDK2/Cyclin A2 [7],590 nM
same,IC50,[8],300 nM
same,IC50,HuCCT-1,5000 nM
same,IC50,MCF7 [9],3300 nM
same,IC50,[10],4700 nM
same,IC50,[11],2500 nM
same,IC50,[12],4400 nM
same,IC50,[13],380 nM
same,Activity,A549 [14],66.7%
same,Activity,A549 [15],83.5%
same,GI50,HL-60,36600 nM
same,IC50,CDK2/Cyclin A2 [16],440 nM
same,IC50,LXFL 529 [17],3000 nM
same,IC50,[18],3330 nM
same,IC50,Danio rerio,310 nM
same,IC50,[19],250 nM
same,IC50,[20],101 nM
same,IC50,[21],101 nM
same,IC50,[22],79 nM
same,IC50,HUVEC,360 nM
same,IC50,MV4-11 [23],30 nM
same,IC50,[24],1480 nM
Cl.Cl.O=C1Nc2c(Br)cccc2/C1=C1/Nc2ccccc2/C1=N\OCCN1CCNCC1,Activity,MeWo,37%
O=C1Nc2ccc([N+](=O)[O-])cc2/C1=C1/Nc2ccc(O)cc2/C1=N\O,IC50,K-562R,783 nM
same,Activity,K562,90%
Cl.O=C1Nc2ccccc2/C1=C1/Nc2ccccc2/C1=N\OCCN1CCNCC1,Activity,[25],62.5%
same,GI50,[26],68200 nM
COC(=O)c1ccc2c(c1)/C(=C1/Nc3ccccc3/C1=N\OCCN1CCNCC1)C(=O)N2.Cl.Cl,GI50,SNU-638,2250 nM
same,Activity,MV4-11 [27],100%
same,GI50,PC-3,1100 nM
same,GI50,MV4-11 [28],1.2 nM
O=C1Nc2cc(Br)ccc2/C1=C1/Nc2ccccc2/C1=N\O [6BIO],Activity,[29],80%
same,Activity,MCF7 [30],75%
same,Activity,A2058,80%
